According to patent US10407445B2, “Hepatitis C virus inhibitors” (ENANTA PHARMACEUTICALS, INC., priority 2013, dated 2019):

Experiments:
Assay type in all cases: cell-based
Settings in all cases: Hepatitis C virus
GT2a-6a-EUKH2 replicon = assay: Stable replicon assay, comparison to daclatasvir, GT2a-6a-EUKH2
Description: The plasmid pSG-hRlucNeo-JFH1 was generated from pSG-Neo-JFH1 (Kato et al. 2003, Gastroentrology 125:1808-1817). A fragment containing the JFH-1 5′ NTR-hRluc-Neo gene and two unique restriction sites (AgeI and PmeI) was synthesized (Integrated DNA Technologies, Coralville, Iowa). The resulting plasmid was digested with AgeI and PmeI and the excised fragment (5′NTR-hRluc-Neo) was ligated into pSG-Neo-JFH1 digested with the same enzymes to generate pSG-hRlucNeo-JFH1. To allow expression of heterologous NS5A sequences, an NS5A shuttle vector was generated from pSG-Neo-JFH1, in which the entire coding sequence of NS5A plus the first eight codons of NS5B were replaced with an AfeI restriction site. This was done by Infusion cloning (Clontech, Mountain View, Calif.) from two PCR products that were generated using pSG-Neo-JFH1 as a template and the following primer pairs:
To express GT6a NS5A chimeric sequences a JFH1-based N-terminal NS5A (NS5A residues 2-107) shuttle vector was constructed by Infusion cloning from two PCR products that were generated using pSG-Neo-JFH1 as a template and the following primers: […]
Purified PCR products were inserted into an NsiI/SnaBI digested pSG-Neo-JFH1 vector by Infusion cloning following the manufacturer's instructions to generate pSG-Neo-JFH1-Nterm_5Ashuttle. […]

[1] = system: HCV genotype 1a replicon, NS5A L31V; assay: Transient replication assay, GT1a NS5A L31V
[2] = system: HCV genotype 1a replicon, NS5A Y93C; assay: Transient replication assay, GT1a NS5A Y93C

Structure (SMILES) | EC50 (GT2a-6a-EUKH2 replicon) | EC50 [1] | EC50 [2]
COC(=O)N[C@H](C(=O)N1C[C@]2(CCCOC2)C[C@H]1c1ncc(-c2ccc(-c3ccc4c(ccc5nc([C@@H]6C[C@@H]7CCC[C@@H]7N6C(=O)[C@@H](NC(=O)OC)C(C)C)[nH]c54)c3)cc2)[nH]1)C(C)C [Compound 16] | 0.014 nM | 0.15 nM | 0.22 nM
COC(=O)N[C@H](C(=O)N1CCC[C@H]1c1nc(-c2ccc(-c3ccc(-c4c[nH]c([C@@H]5CCCN5C(=O)[C@@H](NC(=O)OC)C(C)C)n4)cc3)cc2)c[nH]1)C(C)C [Daclatasvir, reference compound] | 0.143 nM | 4.5 nM | 3.2 nM
